# Assay results taken from PMC11808726, “Identification of ABHD6 as a lysophosphatidylserine lipase in the mammalian liver and kidneys” (The Journal of Biological Chemistry, 2025).
# Biological target: T1, ABHD6 (Mus musculus, UniProt Q8R2Y0)
# T1 construct: full-length mouse ABHD6, pcDNA3.1 myc-His, overexpressed in HEK293T (membrane fraction)
# T1 sequence (Q8R2Y0 1-336): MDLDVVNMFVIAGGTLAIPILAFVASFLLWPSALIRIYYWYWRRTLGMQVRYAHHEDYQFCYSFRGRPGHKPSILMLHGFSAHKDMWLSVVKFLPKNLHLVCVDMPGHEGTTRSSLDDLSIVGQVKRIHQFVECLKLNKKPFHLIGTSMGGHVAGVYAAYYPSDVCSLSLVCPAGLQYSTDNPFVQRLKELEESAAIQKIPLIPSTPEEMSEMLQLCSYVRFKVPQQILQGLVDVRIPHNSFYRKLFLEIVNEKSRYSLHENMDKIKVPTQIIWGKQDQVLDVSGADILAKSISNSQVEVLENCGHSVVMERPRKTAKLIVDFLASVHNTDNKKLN
# Assay: competitive gel-based ABPP dose response with FP-rhodamine; lyso-PS lipase LC-MS assay; in vivo ABPP
# Type: biochemical
smiles,measurement,value
O=C(c1cccc(-c2ccc(-c3cn(C(=O)N4CCCCC4c4ccccc4)nn3)cc2)c1)N1CCCCC1 (stereo not shown) [KT185],IC50,< 10 nM
